System: circulating cytokines
Assay: LPS model of inflammation in the mouse, ELISA of circulating cytokines
Assay type: in vivo, mice
Protocol: Male C57BI/6 mice are dosed with disclosed compounds 30 minutes before they are exposed to LPS (20 mg/kg). Two hours after the LPS exposure, blood is collected from the mice and an ELISA is conducted to determine the amount of circulating cytokines. Treatment with disclosed compounds leads to reduction in proinflammatory cytokines, such as IL-5 and IL-1β, IL-17, and TNF. Also, treatment with disclosed compounds results in elevated anti-inflammatory cytokines, such as IL-10.

**Q.** `CC(C)(O)c1nc2ccc(Cl)cc2cc1N` [NS2, 2-(3-amino-6-chloroquinolin-2-yl)propan-2-ol] was tested. Which pro-inflammatory cytokines (such as IL-5, IL-1β, IL-17, TNF) did it give?
**A.** downregulate

**Q.** What about the anti-inflammatory cytokines (such as IL-10) of the same molecule?
**A.** upregulate
